Measured values taken from publication PMC12802951, “Unravelling the triad of penicillin-binding proteins, β-lactamase activity, and mRNA dynamics in Pseudomonas aeruginosa AmpC induction” (Journal of Antimicrobial Chemotherapy, 2025).
Like-named read-outs stand apart in the source and are kept apart here.

Experiments:
PBP2 = biological target: T1, PBP2 (Pseudomonas aeruginosa, UniProt G3XCV7); assay: Bocillin-FL competition in whole cells; assay type: cell-based; details: intact PAO1 cells, 30 min incubation, covalent
T1 construct: gene pbpA; native full-length protein in intact P. aeruginosa PAO1 cells, Bocillin-FL labelled
T1 sequence (G3XCV7 1-646): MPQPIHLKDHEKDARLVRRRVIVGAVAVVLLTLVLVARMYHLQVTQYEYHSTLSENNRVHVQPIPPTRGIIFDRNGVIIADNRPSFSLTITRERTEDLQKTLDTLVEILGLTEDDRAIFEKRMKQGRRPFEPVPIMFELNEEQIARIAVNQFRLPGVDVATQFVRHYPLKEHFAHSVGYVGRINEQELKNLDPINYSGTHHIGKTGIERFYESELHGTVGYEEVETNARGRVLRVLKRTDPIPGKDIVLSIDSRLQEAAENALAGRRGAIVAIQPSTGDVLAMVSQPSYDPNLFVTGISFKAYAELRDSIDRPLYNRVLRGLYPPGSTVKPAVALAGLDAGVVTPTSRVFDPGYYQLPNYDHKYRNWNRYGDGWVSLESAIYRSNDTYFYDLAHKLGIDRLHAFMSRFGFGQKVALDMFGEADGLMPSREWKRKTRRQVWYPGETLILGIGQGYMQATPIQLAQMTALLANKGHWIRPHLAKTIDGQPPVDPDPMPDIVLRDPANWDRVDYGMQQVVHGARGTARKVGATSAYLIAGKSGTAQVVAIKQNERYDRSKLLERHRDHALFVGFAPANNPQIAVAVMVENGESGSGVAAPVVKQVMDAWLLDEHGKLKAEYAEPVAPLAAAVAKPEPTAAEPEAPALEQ
Description: Bocillin-FL competition in whole cells on PBP2

PBP5 = biological target: T2, PBP5 (Pseudomonas aeruginosa, UniProt G3XD74); assay: Bocillin-FL competition in whole cells; assay type: cell-based; details: intact PAO1 cells, 30 min incubation, covalent
T2 construct: gene dacC; native full-length protein in intact P. aeruginosa PAO1 cells, Bocillin-FL labelled

PBP4 = biological target: T3, PBP4 (Pseudomonas aeruginosa, UniProt Q9HZG1); assay: Bocillin-FL competition in whole cells; assay type: cell-based; details: intact PAO1 cells, 30 min incubation, covalent
T3 construct: gene PA3047; native full-length protein in intact P. aeruginosa PAO1 cells, Bocillin-FL labelled
Description: Bocillin-FL competition in whole cells on PBP4

PBP3 [1] = biological target: T4, PBP3 (Pseudomonas aeruginosa, UniProt G3XD46); assay: Bocillin-FL competition in whole cells; assay type: cell-based; design: gene ftsI; native full-length protein in intact P. aeruginosa PAO1 cells, Bocillin-FL labelled; details: intact PAO1 cells, 30 min incubation, covalent
PBP3 [2] = biological target: T4, PBP3; assay: biochemical; design: gene ftsI; native protein in lysed PAO1; species or system Pseudomonas aeruginosa PAO1; Bocillin FL labelling competition of PBPs in lysed P. aeruginosa PAO1
Description: Abstract Objectives The main objective of the present work was to dissect the interplay between penicillin-binding protein (PBP) occupancy, ampC transcriptional dynamics, and β-lactamase activity in Pseudomonas aeruginosa. Methods Using wild-type PAO1 and isogenic LMW-PBP knockout mutants (PAOΔdacB, PAOΔdacBdacC, and PAOΔdacBdacCpbpG), we assessed ampC induction following exposure to 18 β-lactams and β-lactamase inhibitors. PBP binding (IC50) was quantified via Bocillin-FL labelling. AmpC mRNA levels were measured by qRT-PCR, and β-lactamase activity was determined in crude extracts, periplasmic and extracellular fractions using nitrocefin and cefalotin substrates. […] Binding to PBP4 is a recognized trigger for ampC induction.

AmpC = biological target: T5, AmpC (Pseudomonas aeruginosa, UniProt P24735); assay: inhibition of nitrocefin / cefalotin hydrolysis in crude extract; assay type: biochemical; details: crude extract of PAOΔdacBdacCpbpG; 500 mg/L in Results (Methods: 50 and 100 μM); both substrates
T5 construct: native chromosomal enzyme in crude extract of constitutive AmpC-overproducing triple LMW-PBP knockout

[3] = read-out: Drug mg/L^a / DOR / AVI
[4] = read-out: Drug mg/L^a / TIC / REL
[5] = read-out: Drug mg/L^a / ETP / CAZ
[6] = read-out: Drug mg/L^a / MEM / FOX
[7] = read-out: Drug mg/L^a / MEC / SUL
[8] = read-out: Drug mg/L^a / PIP / CLV
[9] = read-out: Drug mg/L^a / CAR / TZB

T4 sequence (G3XD46 whole entry): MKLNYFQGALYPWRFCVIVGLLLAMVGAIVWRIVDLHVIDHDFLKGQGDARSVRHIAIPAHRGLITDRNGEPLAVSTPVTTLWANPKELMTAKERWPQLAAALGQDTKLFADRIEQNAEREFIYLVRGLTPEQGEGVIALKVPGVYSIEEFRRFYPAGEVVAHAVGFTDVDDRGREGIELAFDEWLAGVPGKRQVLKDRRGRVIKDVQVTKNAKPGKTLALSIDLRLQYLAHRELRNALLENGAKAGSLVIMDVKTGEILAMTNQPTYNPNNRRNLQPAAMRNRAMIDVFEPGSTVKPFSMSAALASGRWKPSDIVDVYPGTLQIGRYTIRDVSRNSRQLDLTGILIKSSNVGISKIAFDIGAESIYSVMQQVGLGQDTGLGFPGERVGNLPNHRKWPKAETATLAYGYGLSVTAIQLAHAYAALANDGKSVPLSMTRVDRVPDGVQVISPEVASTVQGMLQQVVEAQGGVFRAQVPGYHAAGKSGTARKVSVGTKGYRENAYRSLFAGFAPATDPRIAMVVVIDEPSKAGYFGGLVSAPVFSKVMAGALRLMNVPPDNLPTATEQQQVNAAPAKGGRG
T3 sequence (Q9HZG1 entry or part of it): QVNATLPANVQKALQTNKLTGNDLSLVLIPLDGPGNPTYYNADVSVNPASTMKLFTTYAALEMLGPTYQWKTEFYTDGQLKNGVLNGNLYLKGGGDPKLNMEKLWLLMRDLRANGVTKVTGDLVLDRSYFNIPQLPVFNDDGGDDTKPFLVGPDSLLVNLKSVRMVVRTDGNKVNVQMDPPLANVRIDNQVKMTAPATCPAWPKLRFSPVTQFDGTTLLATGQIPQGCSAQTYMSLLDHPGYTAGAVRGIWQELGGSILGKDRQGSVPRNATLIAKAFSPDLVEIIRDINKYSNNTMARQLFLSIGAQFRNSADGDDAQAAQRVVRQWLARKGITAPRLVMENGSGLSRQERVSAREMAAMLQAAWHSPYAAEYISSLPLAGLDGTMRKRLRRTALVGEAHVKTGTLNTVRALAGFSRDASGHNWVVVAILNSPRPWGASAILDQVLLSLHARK
T2 sequence (G3XD74 entry or part of it): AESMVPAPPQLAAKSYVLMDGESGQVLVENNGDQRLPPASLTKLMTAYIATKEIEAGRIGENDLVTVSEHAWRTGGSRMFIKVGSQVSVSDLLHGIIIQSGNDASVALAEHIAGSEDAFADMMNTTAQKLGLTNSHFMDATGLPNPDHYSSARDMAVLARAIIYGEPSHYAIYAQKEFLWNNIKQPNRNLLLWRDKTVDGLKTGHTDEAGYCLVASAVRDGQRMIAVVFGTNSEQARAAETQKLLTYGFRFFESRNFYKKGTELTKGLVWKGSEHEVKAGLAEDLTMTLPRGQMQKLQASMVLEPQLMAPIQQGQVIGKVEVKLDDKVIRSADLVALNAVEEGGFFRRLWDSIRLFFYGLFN
T5 sequence (P24735 27-397): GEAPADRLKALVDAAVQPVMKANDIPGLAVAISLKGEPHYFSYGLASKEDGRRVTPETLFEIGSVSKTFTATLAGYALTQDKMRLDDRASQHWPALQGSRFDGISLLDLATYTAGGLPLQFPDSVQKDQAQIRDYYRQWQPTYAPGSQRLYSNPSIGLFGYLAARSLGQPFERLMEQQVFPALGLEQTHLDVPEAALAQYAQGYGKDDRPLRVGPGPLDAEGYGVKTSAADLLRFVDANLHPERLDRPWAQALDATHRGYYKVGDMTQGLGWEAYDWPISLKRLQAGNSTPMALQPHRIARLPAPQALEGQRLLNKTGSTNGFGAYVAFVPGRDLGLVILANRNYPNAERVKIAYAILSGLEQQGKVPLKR

NC(=O)[C@@H]1CC[C@@H]2CN1C(=O)N2OS(=O)(=O)O [avibactam]
IC50 (PBP2; [3]): 23.7 µM | IC50 (PBP5; [3]): 12.4 µM | IC50 (PBP4; [3]): 9.01 µM | IC50 (PBP3 [1]; [3]): 38.8 µM

C[C@@H](O)[C@H]1C(=O)N2C(C(=O)O)=C(SCCN=CN)C[C@H]12 [imipenem]
IC50 (PBP2; read-out: IPM / FEP): 0.2 µM | IC50 (PBP5; read-out: IPM / FEP): 0.2 µM | IC50 (PBP4; read-out: IPM / FEP): 0.0334 µM

CC1(C)S[C@@H]2[C@H](NC(=O)[C@H](C(=O)O)c3ccsc3)C(=O)N2[C@H]1C(=O)O [ticarcillin]
IC50 (PBP2; [4]): 51.5 µM | IC50 (PBP5; [4]): 682 µM | IC50 (PBP3 [1]; [4]): 6.4 µM

C[C@@H](O)[C@H]1C(=O)N2C(C(=O)O)=C(S[C@@H]3CN[C@H](C(=O)Nc4cccc(C(=O)O)c4)C3)[C@H](C)[C@H]12 [ertapenem]
IC50 (PBP2; [5]): 0.673 µM | IC50 (PBP5; [5]): 1.7 µM | IC50 (PBP4; [5]): 0.105 µM | IC50 (PBP3 [2]): 0.4 µM | IC50 (PBP3 [1]; [5]): 1.14 µM

C[C@@H](O)[C@H]1C(=O)N2C(C(=O)O)=C(S[C@@H]3CN[C@H](CNS(N)(=O)=O)C3)[C@H](C)[C@H]12 [doripenem]
IC50 (PBP2; [3]): 0.69 µM | IC50 (PBP5; [3]): 2.14 µM | IC50 (PBP4; [6]): 0.0476 µM | IC50 (PBP3 [2]): 0.309 µM | IC50 (PBP3 [1]; [3]): 1.05 µM

CC1(C)[C@H](C(=O)O)N2C(=O)C[C@H]2S1(=O)=O [sulbactam]
IC50 (PBP2; [7]): 19.2 µM | IC50 (PBP5; [7]): 8.96 µM | IC50 (PBP4; [7]): 12.4 µM | IC50 (PBP3 [1]; [7]): 9.09 µM

Cc1onc(-c2ccccc2Cl)c1C(=O)N[C@@H]1C(=O)N2[C@@H]1SC(C)(C)[C@@H]2C(=O)O [cloxacillin]
% reduction in hydrolysis rate at 500 mg/L (AmpC): > 95%

O=C(O)[C@H]1/C(=C/CO)O[C@@H]2CC(=O)N21 [clavulanic acid]
IC50 (PBP2; [8]): 56.2 µM | IC50 (PBP5; [8]): 18.1 µM | IC50 (PBP4; [8]): 21.8 µM | IC50 (PBP3 [1]; [8]): 30.5 µM

CC1(C)S[C@@H]2[C@H](N=CN3CCCCCC3)C(=O)N2[C@H]1C(=O)O [mecillinam]
IC50 (PBP2; [7]): 870 µM | IC50 (PBP5; [7]): 1300 µM | IC50 (PBP4; [7]): 648 µM

C[C@H]1[C@H](NC(=O)/C(=N\OC(C)(C)C(=O)O)c2csc(N)n2)C(=O)N1S(=O)(=O)O [aztreonam]
IC50 (PBP2; read-out: Drug mg/L^a / ATM): 17 µM | IC50 (PBP5; read-out: Drug mg/L^a / ATM): 10.4 µM | IC50 (PBP4; read-out: Drug mg/L^a / ATM): 3.1 µM | IC50 (PBP3 [2]): 0.184 µM | IC50 (PBP3 [1]; read-out: Drug mg/L^a / ATM): 1.75 µM

C[C@@H](O)[C@H]1C(=O)N2C(C(=O)O)=C(S[C@@H]3CN[C@H](C(=O)N(C)C)C3)[C@H](C)[C@H]12 [meropenem]
IC50 (PBP2; [6]): 3.99 µM | IC50 (PBP5; [6]): 3.65 µM | IC50 (PBP4; [6]): 0.0522 µM

CC(C)(O/N=C(\C(=O)N[C@@H]1C(=O)N2C(C(=O)[O-])=C(C[n+]3ccccc3)CS[C@H]12)c1csc(N)n1)C(=O)O [ceftazidime]
IC50 (PBP2; [5]): 2.73 µM | IC50 (PBP4; [5]): 0.585 µM | IC50 (PBP3 [2]): 0.11 µM | IC50 (PBP3 [1]; [5]): 0.567 µM

O=C(NC1CCNCC1)[C@@H]1CC[C@@H]2CN1C(=O)N2OS(=O)(=O)O [relebactam]
IC50 (PBP2; [4]): 17.1 µM | IC50 (PBP5; [4]): 81.7 µM | IC50 (PBP4; [4]): 24.4 µM | IC50 (PBP3 [1]; [4]): 12.2 µM

C[C@]1(Cn2ccnn2)[C@H](C(=O)O)N2C(=O)C[C@H]2S1(=O)=O [tazobactam]
IC50 (PBP2; [9]): 11.9 µM | IC50 (PBP5; [9]): 15.9 µM | IC50 (PBP4; [9]): 15.9 µM | IC50 (PBP3 [1]; [9]): 13.4 µM

CC1(C)S[C@@H]2[C@H](NC(=O)C(C(=O)O)c3ccccc3)C(=O)N2[C@H]1C(=O)O (some centres unmarked) [carbenicillin]
IC50 (PBP2; [9]): 85.4 µM | IC50 (PBP5; [9]): 129 µM | IC50 (PBP3 [1]; [9]): 9.01 µM

CO/N=C(\C(=O)N[C@@H]1C(=O)N2C(C(=O)[O-])=C(C[N+]3(C)CCCC3)CS[C@H]12)c1csc(N)n1 [cefepime]
IC50 (PBP2; read-out: IPM / FEP): 2 µM | IC50 (PBP4; read-out: IPM / FEP): 0.52 µM | IC50 (PBP3 [1]; read-out: IPM / FEP): 0.437 µM

CCN1CCN(C(=O)N[C@@H](C(=O)N[C@@H]2C(=O)N3[C@@H]2SC(C)(C)[C@@H]3C(=O)O)c2ccccc2)C(=O)C1=O [piperacillin]
IC50 (PBP2; [8]): 4.21 µM | IC50 (PBP5; [8]): 6.09 µM | IC50 (PBP4; [8]): 3.23 µM | IC50 (PBP3 [2]): 0.0966 µM | IC50 (PBP3 [1]; [8]): 1.7 µM

CO[C@@]1(NC(=O)Cc2cccs2)C(=O)N2C(C(=O)O)=C(COC(N)=O)CS[C@@H]21 [cefoxitin]
IC50 (PBP2; [6]): 4750 µM | IC50 (PBP5; [6]): 12.4 µM | IC50 (PBP4; [6]): 47.7 µM | FOX IC50 (PBP3 [2]; lysed PAO1, covalent): 10.7 µg/mL | IC50 (PBP3 [1]; [6]): 5390 µM
